Experimental data taken from ChEMBL document CHEMBL5137080, “Discovery of Novel 7-Hydroxy-5-oxo-4,5-dihydrothieno[3,2-b]pyridine-6-carboxamide Derivatives with Potent and Selective Antifungal Activity against Cryptococcus Species” (J Med Chem, 2022).
Calls of active or inactive are those of the source. The calls are words filed in the database; no cut-off is given here.

Key:
[1] = test system: Cryptococcus neoformans; test: Antifungal activity against Cryptococcus neoformans H99 infected in Wax moth larvae assessed as reduction on fungal burden at 10 mg/kg measured after 9 days in presence of P163-0892 by 10 fold serial dilution method; assay type: functional; details: time 9 day
[2] = test system: Cryptococcus neoformans; test: Synergistic antifungal activity against Cryptococcus neoformans clinical isolate HN2-40 assessed as fractional inhibitory concentration index incubated for 72 hrs in presence of P163-0892 by broth microdilution method; assay type: functional
[3] = test system: Cryptococcus neoformans; test: Antifungal activity against Cryptococcus neoformans clinical isolate HN20 assessed as fungal growth inhibition incubated for 72 hrs in presence of P163-0892 by broth microdilution method; assay type: functional
[4] = test system: Cryptococcus gattii; test: Antifungal activity against Cryptococcus gattii WM179 assessed as fungal growth inhibition incubated for 72 hrs in presence of P163-0892 by broth microdilution method; assay type: functional, Cryptococcus gattii species complex
[5] = test system: Cryptococcus neoformans; test: Antifungal activity against Cryptococcus neoformans clinical isolate SH68 assessed as fungal growth inhibition incubated for 72 hrs in presence of P163-0892 by broth microdilution method; assay type: functional
[6] = test system: Cryptococcus neoformans; test: Antifungal activity against Cryptococcus neoformans clinical isolate HN1 assessed as fungal growth inhibition incubated for 72 hrs in presence of P163-0892 by broth microdilution method; assay type: functional
[7] = test system: Candida parapsilosis; test: Synergistic antifungal activity against Candida parapsilosis ATCC22019 assessed as fractional inhibitory concentration index incubated for 48 hrs in presence of P163-0892 by broth microdilution method; assay type: functional
[8] = test system: Cryptococcus neoformans; test: Antifungal activity against Cryptococcus neoformans clinical isolate 56992 assessed as fungal growth inhibition incubated for 72 hrs in presence of P163-0892 by broth microdilution method; assay type: functional
[9] = test system: Candida tropicalis; test: Synergistic antifungal activity against Candida tropicalis ATCC20026 assessed as fractional inhibitory concentration index incubated for 48 hrs in presence of P163-0892 by broth microdilution method; assay type: functional
[10] = test system: Cryptococcus neoformans; test: Antifungal activity against Cryptococcus neoformans clinical isolate HN2-40 assessed as fungal growth inhibition incubated for 72 hrs in presence of P163-0892 by broth microdilution method; assay type: functional
[11] = test system: Cryptococcus gattii; test: Synergistic antifungal activity against Cryptococcus gattii WM179 assessed as fractional inhibitory concentration index incubated for 72 hrs in presence of P163-0892 by broth microdilution method; assay type: functional, Cryptococcus gattii species complex
[12] = test system: Cryptococcus neoformans; test: Synergistic antifungal activity against Cryptococcus neoformans clinical isolate 443 assessed as fractional inhibitory concentration index incubated for 72 hrs in presence of P163-0892 by broth microdilution method; assay type: functional
[13] = test system: Cryptococcus neoformans; test: Synergistic antifungal activity against Cryptococcus neoformans clinical isolate 445 assessed as fractional inhibitory concentration index incubated for 72 hrs in presence of P163-0892 by broth microdilution method; assay type: functional
[14] = test system: Cryptococcus neoformans; test: Antifungal activity against Cryptococcus neoformans clinical isolate HN15 assessed as fungal growth inhibition incubated for 72 hrs in presence of P163-0892 by broth microdilution method; assay type: functional
[15] = test system: Candida tropicalis; test: Antifungal activity against Candida tropicalis ATCC20026 assessed as fungal growth inhibition incubated for 48 hrs in presence of P163-0892 by broth microdilution method; assay type: functional
[16] = test system: Cryptococcus neoformans; test: Antifungal activity against Cryptococcus neoformans clinical isolate 443 assessed as fungal growth inhibition incubated for 72 hrs in presence of Fluconazole by broth microdilution method; assay type: functional
[17] = AUC (0 to infinitive) in Sprague-Dawley rat at 2 mg/kg,iv by LC-MS/MS analysis; assay type: ADME, organism-based; parameters: time infinity, dose 2 mg/kg, route iv; details: in vivo
[18] = test system: Cryptococcus neoformans; test: Synergistic antifungal activity against Cryptococcus neoformans clinical isolate 444 assessed as fractional inhibitory concentration index incubated for 72 hrs in presence of Fluconazole by broth microdilution method; assay type: functional
[19] = test system: Candida tropicalis; test: Synergistic antifungal activity against Candida tropicalis ATCC20026 assessed as fractional inhibitory concentration index incubated for 48 hrs in presence of Fluconazole by broth microdilution method; assay type: functional
[20] = test system: Cryptococcus neoformans; test: Antifungal activity against Cryptococcus neoformans clinical isolate 56992 assessed as fungal growth inhibition incubated for 72 hrs in presence of Fluconazole by broth microdilution method; assay type: functional
[21] = test system: Cryptococcus gattii; test: Synergistic antifungal activity against Cryptococcus gattii WM179 assessed as fractional inhibitory concentration index incubated for 72 hrs in presence of Fluconazole by broth microdilution method; assay type: functional, Cryptococcus gattii species complex
[22] = test system: Pichia kudriavzevii; test: Synergistic antifungal activity against Candida krusei ATCC2340 assessed as fractional inhibitory concentration index incubated for 48 hrs in presence of Fluconazole by broth microdilution method; assay type: functional
[23] = test system: Cryptococcus neoformans; test: Synergistic antifungal activity against Cryptococcus neoformans clinical isolate 445 assessed as fractional inhibitory concentration index incubated for 72 hrs in presence of Fluconazole by broth microdilution method; assay type: functional
[24] = test system: Cryptococcus neoformans; test: Antifungal activity against Cryptococcus neoformans H99 infected in Wax moth larvae assessed as survival rate at 10 mg/kg measured after 9 days in presence of Fluconazole by Kaplan-Meier method; assay type: functional; details: H99, 216 h, time 9 day
[25] = test system: Cryptococcus neoformans; test: Synergistic antifungal activity against Cryptococcus neoformans clinical isolate HN1 assessed as fractional inhibitory concentration index incubated for 72 hrs in presence of Fluconazole by broth microdilution method; assay type: functional
[26] = test system: Cryptococcus neoformans; test: Antifungal activity against Cryptococcus neoformans clinical isolate HN2-40 assessed as fungal growth inhibition incubated for 72 hrs in presence of Fluconazole by broth microdilution method; assay type: functional
[27] = test system: Cryptococcus gattii species complex; test: Antifungal activity against Cryptococcus gattii clinical isolate SCZ20024 assessed as fungal growth inhibition incubated for 72 hrs in presence of Fluconazole by broth microdilution method; assay type: functional
[28] = test system: Candida albicans; test: Antifungal activity against Candida albicans SC5314 assessed as fungal growth inhibition incubated for 48 hrs in presence of Fluconazole by broth microdilution method; assay type: functional
[29] = test system: Cryptococcus neoformans; test: Synergistic antifungal activity against Cryptococcus neoformans clinical isolate HN2-40 assessed as fractional inhibitory concentration index incubated for 72 hrs in presence of Fluconazole by broth microdilution method; assay type: functional
[30] = test system: Cryptococcus neoformans; test: Antifungal activity against Cryptococcus neoformans H99 assessed as reduction on fungal growth at 8 ug/ml incubated for 48 hrs by plate reader assay; assay type: functional, organism-based; details: dose 8.0 µg/ml
[31] = test system: Cryptococcus neoformans; test: Antifungal activity against Cryptococcus neoformans H99 assessed as reduction on fungal growth at 2 ug/ml incubated for 48 hrs by plate reader assay; assay type: functional; parameters: scale not given: the % may be the effect or the level left; details: dose 2 µg/ml
[32] = Selectivity index, ratio of IC50 for human Caco-2 to MIC for antifungal activity against Cryptococcus neoformans; assay type: toxicity; details: Caco-2 cells, read-out: Selectivity Index
[33] = test system: Cryptococcus neoformans; test: Synergistic antifungal activity against Cryptococcus neoformans clinical isolate BJ3 assessed as fractional inhibitory concentration index incubated for 72 hrs in presence of Fluconazole by broth microdilution method; assay type: functional
[34] = test system: Cryptococcus neoformans; test: Synergistic antifungal activity against Cryptococcus neoformans clinical isolate HN17 assessed as fractional inhibitory concentration index incubated for 72 hrs in presence of Fluconazole by broth microdilution method; assay type: functional
[35] = Cytotoxicity against rabbit RBC assessed as cell growth inhibition incubated for 24 hrs by CCK-8 assay; assay type: toxicity, cell-based, Oryctolagus cuniculus, Erythrocyte; details: red blood cells
[36] = Cytotoxicity against human Caco-2 cells assessed as cell growth inhibition incubated for 24 hrs by CCK-8 assay; assay type: toxicity, cell-based
[37] = test system: Cryptococcus deuterogattii; test: Antifungal activity against Cryptococcus gattii WM178 assessed as reduction on fungal growth at 8 ug/ml incubated for 48 hrs by plate reader assay; assay type: functional, organism-based; details: Cryptococcus gattii species complex, dose 8.0 µg/ml
[38] = test system: Candida parapsilosis; test: Antifungal activity against Candida parapsilosis ATCC22019 assessed as fungal growth inhibition incubated for 48 hrs in presence of Fluconazole by broth microdilution method; assay type: functional; details: Lodderomyces parapsilosis

Structure (SMILES): OC(Cn1cncn1)(Cn1cncn1)c1ccc(F)cc1F [FLUCONAZOLE]
- Activity [1]: 4.8 log10CFU/g
- fractional inhibitory concentration index (FICI) [2]: 0.188
- MIC [3]: 0.0625 µg/mL
- MIC [4]: 0.5 µg/mL
- MIC [5]: 1 µg/mL
- MIC [6]: 0.125 µg/mL
- fractional inhibitory concentration index (FICI) [7]: 0.625
- MIC [8]: 0.25 µg/mL
- fractional inhibitory concentration index (FICI) [9]: 0.516
- MIC [10]: 0.125 µg/mL
- fractional inhibitory concentration index (FICI) [11]: 0.25
- fractional inhibitory concentration index (FICI) [12]: 0.156
- fractional inhibitory concentration index (FICI) [13]: 0.375
- MIC [14]: 1 µg/mL
- MIC [15]: 1 µg/mL

Structure (SMILES): CCCCNC(=O)c1c(O)c2sccc2n(Cc2ccccc2)c1=O
- MIC [16]: 0.0313 µg/mL
- AUC [17]: 749 ng·h/mL
- fractional inhibitory concentration index (FICI) [18]: 0.156
- fractional inhibitory concentration index (FICI) [19]: 0.516
- MIC [20]: 0.125 µg/mL
- fractional inhibitory concentration index (FICI) [21]: 0.25
- fractional inhibitory concentration index (FICI) [22]: 0.563
- fractional inhibitory concentration index (FICI) [23]: 0.375
- survival at 10 mg/kg [24]: 65%
- fractional inhibitory concentration index (FICI) [25]: 0.125
- MIC [26]: 0.0313 µg/mL
- MIC [27]: 0.0313 µg/mL
- MIC [28]: 1 µg/mL
- fractional inhibitory concentration index (FICI) [29]: 0.188
- Activity [30]: Active
- Activity [31]: 46.8%
- selectivity ratio [32]: > 256
- fractional inhibitory concentration index (FICI) [33]: 0.188
- fractional inhibitory concentration index (FICI) [34]: 0.156
- IC50 at 24 h [35]: > 256 µg/mL
- IC50 at 24 h [36]: > 256 µg/mL
- Activity [37]: Active
- MIC [38]: 16 µg/mL
